In the supplement of paper PMC10307832:

Columns and labels:
Assay in all cases: relative viability (nuclei count vs DMSO), 5 days (fraction); higher = more cells survive
[1] = compound: C#Cc1cccc(Nc2ncnc3cc(OCCOC)c(OCCOC)cc23)c1 [Erlotinib] + N=C(N)NC(=N)NCCc1ccccc1 [Phenformin] (partner 250 µM)
Summary of the method: (§1)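 After 5 days of treatment, lung cancer cells in 1536-well plates were fixed and stained in a single step (final 0.05% Triton X-100, 1% formaldehyde, 1 ug/ml Hoechst) and their nuclei counted on 4× images. Treatment had been applied by pin tool the day after seeding as one drug alone or as a fixed anchor-drug dose with five library-drug doses (not always all listed) in √10 steps. Relative viability is the nuclei count of treated wells divided by that of vehicle wells, and values are medians of duplicate plates.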

[2] = compound: C#Cc1cccc(Nc2ncnc3cc(OCCOC)c(OCCOC)cc23)c1 [Erlotinib] + O=C(CCCCCCC(=O)Nc1ccccc1)NO [Vorinostat] (partner 1 µM)
Summary of the method: as §1

[3] = compound: O=C(Nc1c[nH]nc1-c1nc2ccc(CN3CCOCC3)cc2[nH]1)NC1CC1 [AT9283] + CC1(C)CCC(c2ccc(Cl)cc2)=C(CN2CCN(c3ccc(C(=O)NS(=O)(=O)c4ccc(N[C@H](CCN5CCOCC5)CSc5ccccc5)c(S(=O)(=O)C(F)(F)F)c4)cc3)CC2)C1 [Navitoclax] (partner 0.5 µM)
Summary of the method: as §1

[4] = compound: O=C(Nc1c[nH]nc1-c1nc2ccc(CN3CCOCC3)cc2[nH]1)NC1CC1 [AT9283] + C[C@@H](Oc1cc(-c2cnn(C3CCNCC3)c2)cnc1N)c1c(Cl)ccc(F)c1Cl [Crizotinib] (partner 1 µM)
Summary of the method: as §1

[5] = compound: O=C(Nc1c[nH]nc1-c1nc2ccc(CN3CCOCC3)cc2[nH]1)NC1CC1 [AT9283] + N=C(N)NC(=N)NCCc1ccccc1 [Phenformin] (partner 250 µM)
Summary of the method: as §1

| Cell Line | relative viability ([1]; first compound 0.02 µM) | relative viability ([1]; first compound 0.2 µM) | relative viability ([1]; first compound 0.6325 µM) | relative viability ([1]; first compound 2 µM) | relative viability ([2]; first compound 0.02 µM) | relative viability ([2]; first compound 0.2 µM) | relative viability ([2]; first compound 0.6325 µM) | relative viability ([2]; first compound 2 µM) | relative viability ([3]; first compound 0.003 µM) | relative viability ([3]; first compound 0.03 µM) | relative viability ([3]; first compound 0.09487 µM) | relative viability ([3]; first compound 0.3 µM) | relative viability ([4]; first compound 0.003 µM) | relative viability ([4]; first compound 0.03 µM) | relative viability ([4]; first compound 0.09487 µM) | relative viability ([4]; first compound 0.3 µM) | relative viability ([5]; first compound 0.003 µM) | relative viability ([5]; first compound 0.03 µM) | relative viability ([5]; first compound 0.09487 µM) | relative viability ([5]; first compound 0.3 µM) |
| --- | --- | --- | --- | --- | --- | --- | --- | --- | --- | --- | --- | --- | --- | --- | --- | --- | --- | --- | --- | --- |
| NCI-H2126 | 0.534 | 0.464 | 0.489 | 0.41 | 0.688 | 0.529 | 0.438 | 0.416 | 0.871 | 0.892 | 0.634 | 0.319 | 0.943 | 1.02 | 0.69 | 0.465 | 0.511 | 0.575 | 0.365 | 0.264 |
| SW 1573 | 0.377 | 0.412 | 0.312 | 0.372 | 0.652 | 0.605 | 0.824 | 0.405 | 0.868 | 0.508 | 0.117 | 0.117 | 0.698 | 0.376 | 0.219 | 0.157 | 0.426 | 0.163 | 0.156 | 0.121 |
| NCI-H838 | 0.668 | 0.509 | 0.694 | 0.493 | 0.821 | 0.694 | 0.703 | 0.684 | 1.32 | 0.333 | 0.239 | 0.213 | 0.877 | 0.367 | 0.246 | 0.186 | 0.564 | 0.23 | 0.165 | 0.17 |
| NCI-H1651 | 0.336 | 0.316 | 0.288 | 0.259 | 0.533 | 0.541 | 0.564 | 0.462 | 1.09 | 0.956 | 0.489 | 0.231 | 0.856 | 0.897 | 0.505 | 0.411 | 0.293 | 0.358 | 0.277 | 0.219 |
| HARA | 0.44 | 0.407 | 0.444 | 0.243 | 0.643 | 0.598 | 0.402 | 0.445 | 1.1 | 0.129 | 0.0715 | 0.101 | 1.1 | 0.4 | 0.105 | 0.13 | 0.499 | 0.261 | 0.208 | 0.0751 |
| NCI-H1944 | 0.199 | 0.194 | 0.198 | 0.172 | 0.497 | 0.388 | 0.48 | 0.35 | 1.03 | 0.865 | 0.652 | 0.235 | 0.9 | 0.648 | 0.257 | 0.294 | 0.201 | 0.171 | 0.122 | 0.136 |
| SK-LU-1 | 0.621 | 0.536 | 0.573 | 0.479 | 1.01 | 0.729 | 0.899 | 0.718 | 1.13 | 0.415 | 0.178 | 0.18 | 0.922 | 0.519 | 0.295 | 0.305 | 0.582 | 0.431 | 0.179 | 0.179 |
| PC-14 | 0.278 | 0.171 | 0.177 | 0.139 | 0.428 | 0.0858 | 0.0926 | 0.061 | 1.12 | 1.01 | 0.37 | 0.078 | 0.959 | 0.731 | 0.559 | 0.159 | 0.51 | 0.468 | 0.197 | 0.109 |
| NCI-H2170 | 0.422 | 0.463 | 0.386 | 0.324 | 0.787 | 0.855 | 0.832 | 0.501 | 0.536 | 0.334 | 0.201 | 0.179 | 1.22 | 0.73 | 0.236 | 0.198 | 0.433 | 0.375 | 0.177 | 0.14 |
| CAL-12T | 0.543 | 0.396 | 0.339 | 0.262 | 0.763 | 0.54 | 0.359 | 0.313 | 1.47 | 0.879 | 0.261 | 0.21 | 0.642 | 0.293 | 0.276 | 0.232 | 0.607 | 0.345 | 0.267 | 0.18 |
| A-427 | 0.282 | 0.344 | 0.423 | 0.335 | 0.844 | 0.834 | 0.932 | 0.892 | 1.05 | 0.691 | 0.174 | 0.167 | 0.851 | 0.482 | 0.173 | 0.178 | 0.334 | 0.178 | 0.133 | 0.145 |
| PC-3 [JPC-3] | 0.445 | 0.367 | 0.268 | 0.291 |  | 0.441 | 0.351 | 0.362 | 0.821 | 0.723 | 0.363 | 0.331 | 0.929 | 0.832 | 0.608 | 0.509 | 0.478 | 0.476 | 0.423 | 0.377 |
| 201T | 0.468 | 0.408 | 0.465 | 0.421 | 0.573 |  | 0.89 | 0.816 | 1.24 | 1.21 | 1.21 | 0.524 | 0.996 | 1.02 | 0.478 | 0.468 | 0.445 | 0.419 | 0.345 | 0.285 |
